According to US20080161389A1, “METHOD OF TREATING OCULAR HYPERTENSION AND INTESTINAL DISORDERS BY USING DIANHYDROHEXITE MONONITRATE DERIVATIVES” (LACER, S.A., priority 2006, published 2008):

Key:
[1] = tested on: Alfa-Chymotrypsin-Induced Glaucoma; assay: Intraocular pressure in alfa-chymotrypsin-induced glaucoma; format: in vivo, rabbits; details: for intraocular pressure 0 hr: 0 h after 3 drops instillation; for intraocular pressure 0 hr / intraocular pressure 1 hr / intraocular pressure 2 hr: rabbits with alpha-chymotrypsin-induced glaucoma; for intraocular pressure 1 hr: 1 h after 3 drops instillation; for intraocular pressure 2 hr: 2 h after 3 drops instillation; for reduction of intraocular pressure (in words): 0.05%, similar to conventional compound at 10-fold lower concentration
Procedure: The method used was that described by Gabriele Campana, Claudio Bucolo, Giovanna Murari and Santi Spampinato in Pharmacol. Exp Therap Vol. 303, Issue 3, 1086-1094, December 2002
Animals were injected with intra muscular injection of dexamethasone at the dose rate of 10 mg/Kg body weight, to avoid immediate inflammation. Animals were anesthetized with ketamine (50 mg/kg IV) in combination with Dizepam.
Xylocaine (4%) was used for local anesthesia topically. A cannula attached to reservoir was inserted into the anterior chamber with the help of a 30 gauge needle to provide a hydrostatic pressure of 25 mmHg during injection of alpha-chymotrypsin. Then a second appropriately shaped 30 gauge needle was introduced near the pupil. Freshly prepared 150 units of alpha chymotrypsin prepared in 0.1 ml of sterile saline was irrigated through the cannula into the posterior chamber. Care was taken to prevent the contact of alpha chymotrypsin with corneal stroma. Both cannulas were carefully removed without significant loss of aqueous humor. Immediately after surgery the eye treated with Sofracort (Corticosteroid) to reduce the chances of fungal or microbial infection.
All the animals were kept under observation for 5 days and after these five days the intraocular pressure (IOP) was measured daily with a Schiontz type indentation tonometer using 5.5 gm weights and by compilation of readings the maximum period required to achieve a stable increase in IOP was determined. […] IOP was measured after 15 days for 3 consecutive days, every morning (at same time) to assure stable IOP.
All the animals were closely observed for the development of glaucoma. Thirty animals showing the symptoms of glaucoma and with the intra ocular pressure more than 30 mmHg were selected for the present investigation.
Compounds 2-acetylthioisosorbide-5-mononitrate and 2-[(R)-methylsulfinyl]isosorbide-5-mononitrate (0.05%) were administered to two different groups of rabbits at a concentration of 0.05% by weight [0.05g in 100 mL of saline serum] by 3 drops instillation. For comparative data, the compound Timolol (Timoftol®) widely used for the treatment of glaucoma, was also administered to another group of rabbits at a concentration of 0.5% by weight.
The intraocular pressure measurements are included in the table 2 in mm Hg taken at 0, 1 and 2 h after 3 drops instillation.

[2] = tested on: duodenum; assay: Motor activity: spontaneous contractions recorded at duodenum, indomethacin-induced intestinal inflammation; format: in vivo; details: spontaneous contractions recorded at duodenum per minute, mice, 30 mg/kg orally
Procedure: (§1) Intestinal inflammation were induced by administration of two subcutaneous injections of 7.5 mg/kg indomethacin, as previously described Porras M., Martin M T., Soler M. and Vergara P., “Intestinal motor disorders associated with cyclical bacterial overgrowth in a rat model of enteritis”. Am. J. Physiol. Gastrointest. Liver Physiol. […] Am. J. Physiol. Gastrointest. Liver Physiol. (2006), 290:G423-G430.
(§2) Once the intestinal inflammation has been induced, one group of mice were treated with 30 mg of the compound 2-acetylthioisosorbide-5-mononitrate per kg of body weight, being dissolved this compound in water and administered orally. For comparative data, the compound isosorbide-5-mononitrate (IS-5-MN), structurally similar to 2-acetylthioisosorbide-5-mononitrate, was also administered to another group of mice.
(§3) Studies of the route, magnitude, and time course of bacterial translocation in a model of systemic inflammation were achieved as describe in Arch Surg 126:33-37, 1991. Bacterial translocation was expressed as the number of positive cultures with respect to the total number of samples in each group and motor activity was measured as the contracting activity expressed as the total number of spontaneous contractions recorded at duodenum per minute.

[3] = tested on: E. coli; assay: Bacterial translocation (E. coli) in indomethacin-induced intestinal inflammation; format: in vivo; details: mice; for Bacterial translocation E. coli: number of positive cultures / total number of samples in group, mesenteric lymph nodes, 30 mg/kg orally
Procedure: as §1, §2
(§4) Myeloperoxidase (MPO) activity was measured as an inflammation index in homogenized tissue samples after centrifugation using a specific ELISA kit (HyCult biotechnology, Uden, The Netherlands). In addition, since the barrier function of the intestinal mucus is deteriorated when the epithelium is inflamed and, as a consequence, the exposed bacteria cross the membrane and enter in the blood current, bacterial translocation was measured by detection of viable enteric bacteria in mesenteric lymph nodes as described by [M Mainous M R., Tso P., Berg R. D. and Deitch E. A., Arch Surg (1991) 126:33-37] as additional measure of inflammation degree.
as §3

[4] = tested on: Enterococcus sp; assay: Bacterial translocation (Enterococcus sp) in indomethacin-induced intestinal inflammation; format: in vivo; details: number of positive cultures / total number of samples in group, mesenteric lymph nodes, mice, 30 mg/kg orally
Procedure: as §1
Once the intestinal inflammation has been induced, one group of mice were treated with 30 mg of the compound 2-acetylthioisosorbide-5-mononitrate per kg of body weight, being dissolved this compound in water and administered orally. […]
as §4, with “degree. […]” for “degree.”

[5] = tested on: Myeloperoxidase (MPO); assay: Myeloperoxidase (MPO) activity as inflammation index in homogenized tissue samples (ELISA), indomethacin-induced intestinal inflammation; format: in vivo, mice; details: for MPO activity: homogenized tissue samples, mice, indomethacin-induced intestinal inflammation, 30 mg/kg orally
Procedure: as §1, §2, §4

Row | Compound | intraocular pressure 0 hr [1] [mm Hg] | intraocular pressure 1 hr [1] [mm Hg] | intraocular pressure 2 hr [1] [mm Hg] | Contractions/min [2] [Contractions/min] | bacterial translocation (in words) [3] | Bacterial translocation E. coli [3] | Bacterial translocation Enterococcus sp [4] | reduction of MTO activity (in words) ([5]; compared to a structurally similar compound (IS-5-MN)) | MPO activity [5] [ng/mL] | reduction of intraocular pressure (in words) [1]
1 | CC(C)(C)NC[C@H](O)COc1nsnc1N1CCOCC1 [Timolol, reference compound] | 34.45 ± 0.58 | 24.77 ± 0.26 | 24.54 ± 0.26 | – | – | – | – | – | – | –
2 | CC(=O)S[C@H]1CO[C@H]2[C@@H]1OC[C@H]2O[N+](=O)[O-] [2-acetylthioisosorbide-5-mononitrate, 2-acetylthio-isosorbide-5-mononitrate] | 34.33 ± 0.68 | 24.72 ± 0.47 | 23.86 ± 0.32 | 0.2 ± 0.1 | also reduced | 2/6 | 1/6 | significant reduction | 10 ± 2 | significantly reduce the intraocular pressure
3 | O=[N+]([O-])O[C@@H]1CO[C@H]2[C@@H]1OC[C@@H]2O [IS-5-MN, isosorbide-5-mononitrate, reference compound] | – | – | – | 0.5 ± 0.1 | – | 3/6 | 3/6 | – | 19 ± 4 | –
4 | C[S@@+]([O-])C1COC2C(O[N+](=O)[O-])COC21 (stereo partly drawn) [2-[(R)-methylsulfinyl]isosorbide-5-mononitrate] | 33.87 ± 0.38 | 23.51 ± 0.24 | 22.77 ± 0.19 | – | – | – | – | – | – | significantly reduce the intraocular pressure
